Experimental data as given in US8546410B2, “Heteroaryl-fused macrocyclic pyrimidine derivatives” (AbbVie Inc., priority 2008, dated 2013).

Key:
[1] = molecular target: T1, histamine H4 receptor (Homo sapiens, UniProt Q9H3N8); assay: 3H-histamine competition binding assay, membranes of transfected HEK-293 cells; conditions: displacement of [3H]-histamine, 25° C., 1 hour; Ki by Cheng-Prusoff equation; read-out: Potency
T1 construct: expressed in transfected cells
Procedure: The potency of compounds of the invention in displacing ^3H-histamine in competition binding assays is assessed by methods described in Esbenshade, et al., Biochemical Pharmacology (2004), vol. 68, pp. 933-945. In this assay, membranes were prepared from HEK-293 cells transiently transfected with the pCINeo expression vector harboring the histamine H4 receptor by homogenization of the cells on ice in TE buffer (50 mM Tris-HCl buffer, pH 7.4, containing 5 mM EDTA), 1 mM benzamidine, 2 μg/ml aprotinin, 1 μg/ml leupeptin, and 1 μg/ml pepstatin. The homogenate was centrifuged at 40,000 g for 20 minutes at 4° C. This step was repeated, and the resulting pellet was resuspended in TE buffer. Aliquots were frozen at −70° C. until needed. On the day of assay, membranes were thawed and diluted with TE buffer. Competition radioligand binding assays were performed with increasing concentrations of test compound in the presence of [^3H]-histamine incubated at 25° C. for 1 hour in a total volume of 0.5 ml of 50 mM Tris, 5 mM EDTA, pH 7.4. All binding reactions were terminated by filtration under vacuum onto polyethylenimine (0.3%) presoaked Unifilters (PerkinElmer Life Sciences) or Whatman GF/B filters (Whatman, Clifton, N.J.) followed by three brief washes with 4 ml of ice-cold TE buffer. Bound radiolabel was determined by liquid scintillation counting. For all of the radioligand competition binding assays, IC50 values and Hill slopes were determined by Hill transformation of the data and Ki values were determined by the Cheng-Prusoff equation. The following table of representative histamine H4 receptor ligands is provided, along with potency values: […]

[2] = molecular target: T1, histamine H4 receptor; assay: In vitro histamine H4 potency in FLIPR (Ca2+ flux, Fluo-4, HEK-293 cells coexpressing Gαqi5); assay type: cell-based; conditions: Kb values for antagonists and inverse agonists, EC50 values for partial agonists
Description: There are many methods available to show the effectiveness of compounds as histamine H4 receptor ligands. Histamine H4 receptors from mammalian species have been cloned. Methods to clone, express, and assess the potency and functional activity of such cloned genes are well known to those skilled in the art of molecular biology. Examples of methods of cloning and expressing histamine H4 receptors, and of assessing the potency and functional activity are described in Nguyen, et al. Molecular Pharmacology (2001) vol. 59 pp. 427-433; Zhu, et al. Molecular Pharmacology (2001) vol. 59 pp. 434-441; Coge, et al., Biochemical and Biophysical Research Communications (2001) vol. 284, pp. 301-309; Liu, et al. Molecular Pharmacology (2001) vol. 59 pp. 420-426; Liu, et al. Journal of Pharmacology and Experimental Therapeutics (2001) v. 299, pp. 121-130; and Thurmond, et al. Journal of Pharmacology and Experimental Therapeutics (2004) v. 309, pp. 404-413. In the present case, to determine the potency and effectiveness of representative compounds of this invention as histamine-H4 receptor ligands (H4 receptor ligands), the following tests were conducted according to previously described methods (see Esbenshade, et al., Biochemical Pharmacology (2004), vol. 68, pp. 933-945, and in Krueger, et al., Journal of Pharmacology and Experimental Therapeutics (2005) v. 314, pp. 271-281): histamine H4 receptors were cloned and stably expressed in HEK-293 (human embryonic kidney) cells coexpressing a Gαqi5. Before testing, cells are loaded with a Ca^+2 sensitive fluorescent dye, in this case Fluo-4. In the case of partial agonist or agonist ligands, addition of compound to the cells leads to the increase in intracellular Ca^+2 which is detected by FLIPR (Fluorescence Imaging Plate Reader; Molecular Devices, Sunnyvale, Calif.) technology. In a similar manner, compounds that are antagonists or inverse agonists, block the increase in fluorescence induced by the full histamine H4 agonist histamine, and partial agonists reduce the amount of fluorescence induced by the full histamine H4 agonist histamine. The fluorescence intensities measured before addition of the test compound are subtracted from the fluorescence intensities at later time points. Peak response values determined at each concentration of ligand are expressed as a percentage of the response obtained with the full agonist histamine. Concentration versus response data are analyzed to obtain compound potency as Kb values for antagonists and inverse agonists and as EC50 values for partial agonists.

Ki [1]	Potency [2]	Compound
10 nM	6.6 nM	Nc1nc2c(c(N3CC[C@@H](N)C3)n1)CCCc1sccc1-2 [Example 2, 4-[(3R)-3-aminopyrrolidin-1-yl]-6,7-dihydro-5H-thieno[2′,3′:6,7]cyclohepta[1,2-d]pyrimidin-2-amine]
8.8 nM	3.7 nM	CN[C@@H]1CCN(c2nc(N)nc3c2CCCc2sccc2-3)C1 [Example 3, 4-[(3R)-3-(methylamino)pyrrolidin-1-yl]-6,7-dihydro-5H-thieno[2′,3′:6,7]cyclohepta[1,2-d]pyrimidin-2-amine]
–	252 nM	Cc1cc2c(o1)CCCc1c-2nc(N)nc1N1CC[C@@H](N)C1 [Example 6, 4-[(3R)-3-aminopyrrolidin-1-yl]-9-methyl-6,7-dihydro-5H-furo[2′,3′:6,7]cyclohepta[1,2-d]pyrimidin-2-amine]
426 nM	105 nM	Cn1ncc2c1CCCc1c-2nc(N)nc1N1CC[C@@H](N)C1 [Example 9, 4-[(3R)-3-aminopyrrolidin-1-yl]-8-methyl-5,6,7,8-tetrahydropyrazolo[3′,4′:6,7]cyclohepta[1,2-d]pyrimidin-2-amine]
–	46 nM	CN[C@@H]1CCN(c2nc(N)nc3c2CCCc2c-3cnn2-c2ccccc2)C1 [Example 11, 4-[(3R)-3-(methylamino)pyrrolidin-1-yl]-8-phenyl-5,6,7,8-tetrahydropyrazolo[3′,4′:6,7]cyclohepta[1,2-d]pyrimidin-2-amine]
–	35 nM	Nc1nc2c(c(N3CC4CCCNC4C3)n1)CCCc1sc(Br)cc1-2 (stereo not shown) [Example 12, 9-bromo-4-octahydro-6H-pyrrolo[3,4-b]pyridin-6-yl-6,7-dihydro-5H-thieno[2′,3′:6,7]cyclohepta[1,2-d]pyrimidin-2-amine]
–	35 nM	Nc1nc2c(c(N3CC[C@@H](N)C3)n1)CCCc1cccnc1-2 [Example 15, 4-[(3R)-3-aminopyrrolidin-1-yl]-6,7-dihydro-5H-pyrido[3′,2′:6,7]cyclohepta[1,2-d]pyrimidin-2-amine]
–	2350 nM	Cc1noc2c1-c1nc(N)nc(N3CCN(C)CC3)c1CCC2 [Example 16, 10-methyl-4-(4-methylpiperazin-1-yl)-6,7-dihydro-5H-isoxazolo[5′,4′:6,7]cyclohepta[1,2-d]pyrimidin-2-amine]
–	1860 nM	Cc1noc2c1-c1nc(N)nc(N3CC[C@@H](N)C3)c1CCC2 [Example 17, 4-[(3R)-3-aminopyrrolidin-1-yl]-10-methyl-6,7-dihydro-5H-isoxazolo[5′,4′:6,7]cyclohepta[1,2-d]pyrimidin-2-amine]
80 nM	–	CN1CCN(c2nc(N)nc3c2CCc2sccc2-3)CC1 [Example 21, 4-(4-methylpiperazin-1-yl)-5,6-dihydrothieno[2,3-h]quinazolin-2-amine]

The next lines start with the compound.

Compound	Ki [1]	Potency [2]
Nc1nc2c(c(N3CC4CCCNC4C3)n1)CCCc1sccc1-2 (stereo not shown) [Example 1, 4-octahydro-6H-pyrrolo[3,4-b]pyridin-6-yl-6,7-dihydro-5H-thieno[2′,3′:6,7]cyclohepta[1,2-d]pyrimidin-2-amine]	6 nM	17 nM
Nc1nc2c(c(N3CC4CCCNC4C3)n1)CCCc1occc1-2 (stereo not shown) [Example 4, 4-octahydro-6H-pyrrolo[3,4-b]pyridin-6-yl-6,7-dihydro-5H-furo[2′,3′:6,7]cyclohepta[1,2-d]pyrimidin-2-amine]	12 nM	14 nM
Cc1cc2c(o1)CCCc1c-2nc(N)nc1N1CC2CCCNC2C1 (stereo not shown) [Example 5, 9-methyl-4-octahydro-6H-pyrrolo[3,4-b]pyridin-6-yl-6,7-dihydro-5H-furo[2′,3′:6,7]cyclohepta[1,2-d]pyrimidin-2-amine]	–	34 nM
Nc1nc2c(c(N3CC4CCCNC4C3)n1)CCCc1ccoc1-2 (stereo not shown) [Example 7, 4-octahydro-6H-pyrrolo[3,4-b]pyridin-6-yl-6,7-dihydro-5H-furo[3′,2′:6,7]cyclohepta[1,2-d]pyrimidin-2-amine]	165 nM	20 nM
CN1CCN(c2nc(N)nc3c2CCCc2c-3cnn2C)CC1 [Example 8, 8-methyl-4-(4-methylpiperazin-1-yl)-5,6,7,8-tetrahydropyrazolo[3′,4′:6,7]cyclohepta[1,2-d]pyrimidin-2-amine]	–	107 nM
CC(C)(C)n1ncc2c1CCCc1c-2nc(N)nc1N1CC2CCCNC2C1 (stereo not shown) [Example 10, 8-tert-butyl-4-octahydro-6H-pyrrolo[3,4-b]pyridin-6-yl-5,6,7,8-tetrahydropyrazolo[3′,4′:6,7]cyclohepta[1,2-d]pyrimidin-2-amine]	44 nM	187 nM
Nc1nc2c(c(N3CC4CCCNC4C3)n1)CCCc1sc(-c3ccccc3)cc1-2 (stereo not shown) [Example 13, 4-octahydro-6H-pyrrolo[3,4-b]pyridin-6-yl-9-phenyl-6,7-dihydro-5H-thieno[2′,3′:6,7]cyclohepta[1,2-d]pyrimidin-2-amine]	–	700 nM
CN1CCN(c2nc(N)nc3c2CCCc2cccnc2-3)CC1 [Example 14, 4-(4-methylpiperazin-1-yl)-6,7-dihydro-5H-pyrido[3′,2′:6,7]cyclohepta[1,2-d]pyrimidin-2-amine]	–	37 nM
Nc1nc2c(c(N3C[C@H]4CCCN[C@H]4C3)n1)CCCc1sccc1-2 [Example 18, 4-[(4aR,7aR)-octahydro-6H-pyrrolo [3,4-b]pyridin-6-yl]-6,7-dihydro-5H-thieno[2′,3′:6,7]cyclohepta[1,2-d]pyrimidin-2-amine]	1.8 nM	6 nM
CN1CCN(c2nc(N)nc3c2CCc2nn(-c4ccccc4)nc2-3)CC1 [Example 20, 6-(4-methylpiperazin-1-yl)-2-phenyl-4,5-dihydro-2H-[1,2,3]triazolo[4,5-h]quinazolin-8-amine]	1300 nM	–
